In the assay the target is T1, human NaV1.8 (Homo sapiens, UniProt Q9Y5Y9).
T1 construct: The following NaV1.8 recombinant cell line was used for recordings: HEK-NaV1.8 (NM 006514.1); expressed in transfected cells; host or cells: HEK (recombinant cell line HEK-NaV1.8)
Put plainly: Electrophysiology: automated whole-cell voltage-clamp (patch clamp, Qube384) recordings of sodium currents in HEK-NaV1.8 cells. The class given is cell-based. The settings on record: potency data either taken from inactivated or resting state, read-out: Potency category (human NaV1.8 IC50). In short, it runs like this: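 Automated whole-cell patch clamp at room temperature on HEK cells expressing human NaV1.8, with 0.3% DMSO vehicle controls. State-dependent protocol from −120 mV tested resting (P1) and half-inactivated (P2, 4 s at V1/2) channels, plus 40-pulse trains at 10 and 20 Hz. Values after ~12 min compound exposure were normalised to baseline and corrected for vehicle run-down; IC50 from a 4-parameter logistic fit, taken from inactivated or resting state.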
(In general: Patch clamp records ionic current or voltage across a cell membrane.)

A word on the IC50: it is the concentration at which inhibition is half-maximal.

Where only a bound is given, the exact number is not on record here.

T1 sequence (Q9Y5Y9 whole entry): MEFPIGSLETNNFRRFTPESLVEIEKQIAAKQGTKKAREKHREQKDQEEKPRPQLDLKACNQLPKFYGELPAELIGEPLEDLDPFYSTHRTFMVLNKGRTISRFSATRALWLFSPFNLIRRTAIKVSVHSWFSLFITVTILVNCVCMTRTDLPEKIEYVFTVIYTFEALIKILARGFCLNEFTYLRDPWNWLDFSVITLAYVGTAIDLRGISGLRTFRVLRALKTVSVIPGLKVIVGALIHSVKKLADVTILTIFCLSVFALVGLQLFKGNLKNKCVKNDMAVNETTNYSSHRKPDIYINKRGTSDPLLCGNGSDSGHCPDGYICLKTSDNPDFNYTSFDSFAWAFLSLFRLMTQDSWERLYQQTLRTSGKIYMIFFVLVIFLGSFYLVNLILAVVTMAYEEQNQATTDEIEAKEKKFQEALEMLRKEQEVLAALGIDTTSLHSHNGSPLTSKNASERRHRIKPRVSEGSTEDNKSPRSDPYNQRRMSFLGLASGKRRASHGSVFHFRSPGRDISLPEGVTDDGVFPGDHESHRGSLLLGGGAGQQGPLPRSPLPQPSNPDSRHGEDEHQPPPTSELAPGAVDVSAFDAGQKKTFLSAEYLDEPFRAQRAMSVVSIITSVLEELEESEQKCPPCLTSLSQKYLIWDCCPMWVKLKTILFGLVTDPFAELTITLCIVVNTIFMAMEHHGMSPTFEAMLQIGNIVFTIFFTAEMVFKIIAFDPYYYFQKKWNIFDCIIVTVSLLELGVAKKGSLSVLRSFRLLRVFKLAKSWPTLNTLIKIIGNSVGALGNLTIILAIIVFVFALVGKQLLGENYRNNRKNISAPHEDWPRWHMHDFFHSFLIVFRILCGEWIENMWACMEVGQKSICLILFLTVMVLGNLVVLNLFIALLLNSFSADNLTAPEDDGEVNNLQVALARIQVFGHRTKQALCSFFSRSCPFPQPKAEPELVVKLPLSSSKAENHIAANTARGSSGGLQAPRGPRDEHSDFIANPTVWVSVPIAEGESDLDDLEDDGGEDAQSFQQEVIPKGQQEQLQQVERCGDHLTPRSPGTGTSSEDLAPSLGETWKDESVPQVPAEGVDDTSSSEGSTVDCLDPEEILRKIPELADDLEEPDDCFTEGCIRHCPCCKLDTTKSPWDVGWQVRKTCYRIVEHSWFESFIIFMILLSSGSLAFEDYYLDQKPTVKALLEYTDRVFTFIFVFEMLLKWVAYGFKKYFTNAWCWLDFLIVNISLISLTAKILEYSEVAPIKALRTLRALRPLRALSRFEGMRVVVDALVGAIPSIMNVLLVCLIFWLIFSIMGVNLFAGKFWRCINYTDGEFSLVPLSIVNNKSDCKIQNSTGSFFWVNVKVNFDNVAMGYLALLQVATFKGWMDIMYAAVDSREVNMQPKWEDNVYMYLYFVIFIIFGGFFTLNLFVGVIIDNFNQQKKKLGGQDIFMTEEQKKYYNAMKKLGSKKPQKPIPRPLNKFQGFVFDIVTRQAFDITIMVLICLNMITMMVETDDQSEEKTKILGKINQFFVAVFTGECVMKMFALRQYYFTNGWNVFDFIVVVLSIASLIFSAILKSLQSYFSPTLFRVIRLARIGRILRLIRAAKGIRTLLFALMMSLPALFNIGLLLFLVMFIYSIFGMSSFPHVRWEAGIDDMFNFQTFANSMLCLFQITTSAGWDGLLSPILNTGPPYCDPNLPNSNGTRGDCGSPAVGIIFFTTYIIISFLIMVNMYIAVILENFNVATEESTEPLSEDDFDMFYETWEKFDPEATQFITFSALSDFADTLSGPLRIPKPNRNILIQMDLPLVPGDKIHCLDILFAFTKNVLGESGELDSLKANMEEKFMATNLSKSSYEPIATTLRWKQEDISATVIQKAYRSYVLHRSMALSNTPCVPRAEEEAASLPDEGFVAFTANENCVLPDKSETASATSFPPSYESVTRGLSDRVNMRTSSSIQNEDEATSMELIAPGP
T1 sequence (Q9NY72 23-215 partner): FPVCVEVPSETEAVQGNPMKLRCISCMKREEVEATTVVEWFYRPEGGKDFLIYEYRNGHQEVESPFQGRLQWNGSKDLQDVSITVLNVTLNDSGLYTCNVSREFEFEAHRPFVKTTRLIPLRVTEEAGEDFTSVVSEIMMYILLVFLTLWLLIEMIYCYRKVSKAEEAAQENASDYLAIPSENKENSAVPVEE

For the molecule `CC(F)(F)c1nn(CC2CCC(F)(F)C2)c(C(=O)Nc2ccnc(C(N)=O)c2)c1Cl` (single isomer, unassigned) [SC-149a], the IC50 is at most 100 nM.

Take `Cc1c(C(C)(F)F)nn(C[C@]2(C)CCCO2)c1C(=O)Nc1ccnc(S(N)(=O)=O)c1` (single isomer, unassigned) [SC-319a]: the IC50 was 100 to 1000 nM.

Take `Cc1c(C(F)(F)F)nn(CC2CCC(F)(F)CC2)c1C(=O)Nc1cccc(S(N)(=O)=O)n1` [SC-243, 1-((4,4-difluorocyclohexyl)methyl)-4-methyl-N-(6-sulfamoylpyridin-2-yl)-3-(trifluoromethyl)-1H-pyrazole-5-carboxamide]: the IC50 fell in the range of 100 to 1000 nM.

Take `Cc1nn(CC2CCC(F)(F)CC2)c(C(=O)Nc2cnnc(S(C)(=O)=O)c2)c1C(F)(F)F` [SC-280, 1-((4,4-difluorocyclohexyl)methyl)-3-methyl-N-(6-(methylsulfonyl)pyridazin-4-yl)-4-(trifluoromethyl)-1H-pyrazole-5-carboxamide]: the concentration for half-maximal inhibition (IC50) lay within 100 to 1000 nM.

With `CC(C)Oc1nn(CC2CCC(F)(F)C2)c(C(=O)Nc2ccnc(C(N)=O)c2)c1C(F)(F)F` (stereo not shown) [SC-155, 4-(1-((3,3-difluorocyclopentyl)methyl)-3-isopropoxy-4-(trifluoromethyl)-1H-pyrazole-5-carboxamido)picolinamide], the 50% inhibitory concentration (IC50) is at most 100 nM.

In the case of `NC(=O)c1cc(NC(=O)c2c(C(F)(F)F)c(C(F)F)nn2CC2CC(F)(F)C2)ccn1` [SC-324, 4-(1-((3,3-difluorocyclobutyl)methyl)-3-(difluoromethyl)-4-(trifluoromethyl)-1H-pyrazole-5-carboxamido)picolinamide], the IC50 is at most 100 nM.

In the case of `Cc1c([C@H](C)C(F)F)nn(CC2CC(F)(F)C2)c1C(=O)Nc1ccnc(C(N)=O)c1` [SC-192b], the IC50 was 100 to 1000 nM.

As to `Cc1c(C(F)(F)C(F)(F)F)nn(CC2CCC2(F)F)c1C(=O)Nc1ccnc(C(N)=O)c1` (single isomer, unassigned) [SC-278a], the IC50 was at most 100 nM.

For the molecule `CC(C)c1cnn(CC2CCCCC2)c1C(=O)Nc1cccc(S(C)(=O)=O)c1` [SC-18, 2-(cyclohexylmethyl)-N-(3-methylsulfonylphenyl)-4-propan-2-ylpyrazole-3-carboxamide], the IC50 was in the range of 1000 to 10000 nM.

`Cc1nn(CC2COC2)c(C(=O)Nc2cccc(S(C)(=O)=O)c2)c1C(F)(F)F` [SC-234, 3-methyl-N-(3-(methyIsulfonyl)phenyl)-1-(oxetan-3-yImethyl)-4-(trifluoromethyl)-1H-pyrazole-5-carboxamide]: the IC50 lay within 1000 to 10000 nM.

For the molecule `Cc1c(C(F)(F)F)nn(CC2CCC(F)(F)C2)c1C(=O)Nc1ccnc(C(N)=O)c1` (single isomer, unassigned) [SC-118b], the IC50 was at most 100 nM.

As for `CS(=O)(=O)c1cccc(NC(=O)c2c(C(F)(F)F)cnn2CC2CCC(F)(F)CC2)c1` [SC-05, 2-[(4,4-difluorocyclohexyl)methyl]-N-(3-methylsulfonylphenyl)-4-(trifluoromethyl)pyrazole-3-carboxamide], the IC50 fell in the range of 100 to 1000 nM.

As to `NC(=O)c1cc(NC(=O)c2c(C(F)(F)F)c(C3CC3)nn2CC2CCC2(F)F)ccn1` (single isomer, unassigned) [SC-154b, 4-(3-cyclopropyl-1-((2,2-difluorocyclobutyl)methyl)-4-(trifluoromethyl)-1H-pyrazole-5-carboxamido)picolinamide], the IC50 was at most 100 nM.

Consider `Cc1c(C(C)(F)F)nn(CC2(C)CC2)c1C(=O)Nc1ccnc(S(N)(=O)=O)c1` [SC-313, 3-(1,1-difluoroethyl)-4-methyl-1-((1-methyleyelopropyl)methyl)-N-(2-sulfamoylpyridin-4-yl)-lH-pyrazole-5-carboxamide], for which the IC50 was at most 100 nM.

On to `CS(=O)(=O)c1cc(NC(=O)c2c(C(F)(F)F)c(C3CC3)nn2CC2CCCCO2)ccn1` (single isomer, unassigned) [SC-259a], for which the IC50 is at most 100 nM.

On to `NC(=O)c1cc(NC(=O)c2c(C(F)(F)F)c(C3CC3)nn2C[C@@H]2CCO[C@@H]2C(F)(F)F)ccn1` (single isomer, unassigned) [SC-147a], for which the IC50 was at most 100 nM.

As to `Cc1c(C(F)(F)F)nn(CC2CCC(F)(F)CC2)c1C(=O)Nc1cncc(S(N)(=O)=O)c1` [SC-242, 1-((4,4-difluorocyclohexyl)methyl)-4-methyl-N-(5-sulfamoylpyridin-3-yl)-3-(trifluoromethyl)-1H-pyrazole-5-carboxamide], the IC50 is 100 to 1000 nM.

Take `Cc1c(C(F)(F)F)nn(CC2CCC(F)(F)C2)c1C(=O)Nc1ccnc(S(N)(=O)=O)c1` (single isomer, unassigned) [SC-254a]: the IC50 was at most 100 nM.

For `NC(=O)c1cc(NC(=O)c2c(C(F)(F)F)c(C3CC3)nn2CC2CCC2)ccn1` [SC-159, 4-(1-(cyclobutylmethyl)-3-cyclopropyl-4-(trifluoromethyl)-1H-pyrazole-5-carboxamido)picolinamide], the IC50 is at most 100 nM.

For `Cc1c(C(C)(F)F)nn(CC2(C(F)(F)F)CC(F)(F)C2)c1C(=O)Nc1ccnc(S(C)(=O)=O)c1` [SC-220, 1-((3,3-difluoro-1-(trifluoromethyl)cyclobutyl)methyl)-3-(1,l-difluoroethyl)-4-methyl-N-(2-(methylsulfonyl)pyridin-4-yl)-1H-pyrazole-5-carboxamide], the IC50 is at most 100 nM.

Turning to `NC(=O)c1cc(NC(=O)c2c(C(F)(F)F)c(C3CC3)nn2CC2CCCOC2)ccn1` (single isomer, unassigned) [SC-145a, 4-(3-Cyclopropyl-1-((tetrahydro-2H-pyran-3-yl)methyl)-4-(trifluoromethyl)-1H-pyrazole-5-carboxamido)picolinamide], the IC50 was at most 100 nM.

`NS(=O)(=O)c1cc(NC(=O)c2c(C(F)(F)F)c(C3CC3)nn2CC2CCC(F)(F)CC2)ccn1` [SC-246, 3-cyclopropyl-1-((4,4-difluorocyclohexyl)methyl)-N-(2-sulfamoylpyridin-4-yl)-4-(trifluoromethyl)-1H-pyrazole-5-carboxamide]: the IC50 was at most 100 nM.

`NC(=O)c1cccc(NC(=O)c2c(C(F)(F)F)cnn2CC2CCC(F)(F)CC2)c1` [SC-41, N-(3-carbamoylphenyl)-2-[(4,4-difluorocyclohexyl)methyl]-4-(trifluoromethyl)pyrazole-3-carboxamide]: the IC50 lay within 100 to 1000 nM.

As to `NC(=O)c1cc(NC(=O)c2c(C(F)(F)F)c(C3CC3)nn2CC2CC(C(F)F)C2)ccn1` (single isomer, unassigned) [SC-221a, 4-(3-cyclopropyl-1-((3-(difluoromethyl)cyclobutyl)methyl)-4-(trifluoromethyl)-1H-pyrazole-5-carboxamido)picolinamide], the IC50 was at most 100 nM.

Turning to `Cc1nn(CC2CCC(F)(F)CC2)c(C(=O)Nc2ccnc(C(N)=O)c2C)c1C(F)(F)F` [SC-294, 4-(1-((4,4-difluorocyclohexyl)methyl)-3-methyl-4-(trifluoromethyl)-1H-pyrazole-5-carboxamido)-3-methylpicolinamide], the IC50 is 1000 to 10000 nM.

As to `CS(=O)(=O)c1cc(NC(=O)c2c(CC(F)(F)F)c(C3CC3)nn2CC2CCOCC2)ccn1` [SC-305, 3-cyclopropyl-N-(2-(methylsulfonyl)pyridin-4-yl)-1-((tetrahydro-2H-pyran-4-yl)methyl)-4-(2,2,2-trifluoroethyl)-1H-pyrazole-5-carboxamide], the IC50 fell in the range of 1000 to 10000 nM.

`Cc1c(C(C)(F)F)nn(CC2(C)CC(F)(F)C2)c1C(=O)Nc1ccnc(C(N)=O)c1` [SC-208, 4-(1-((3,3-difluoro-1-methylcyclobutyl)methyl)-3-(1,1-difluoroethyl)-4-methyl-1H-pyrazole-5-carboxamido)picolinamide]: the IC50 is at most 100 nM.

Regarding `Cc1cc(NC(=O)c2c(C(F)(F)F)c(C)nn2CC2CCC(F)(F)CC2)cc(C(N)=O)n1` [SC-267, 4-(1-((4,4-difluorocyclohexyl)methyl)-3-methyl-4-(trifluoromethyl)-1H-pyrazole-5-carboxamido)-6-methylpicolinamide], the IC50 was in the range of 100 to 1000 nM.

For the molecule `Cc1nn(CC2CCC(F)(F)CC2)c(C(=O)Nc2cnnc(C(N)=O)c2)c1C(F)(F)F` [SC-321, 5-(1-((4,4-difluorocyclohexyl)methyl)-3-methyl-4-(trifluoromethyl)-1H-pyrazole-5-carboxamido)pyridazine-3-carboxamide], the IC50 was 100 to 1000 nM.

Consider `NS(=O)(=O)c1cccc(NC(=O)c2c(C(F)(F)F)cnn2CC2CCCC2(F)F)c1` (stereo not shown) [SC-235, 1-((2,2-difluorocyclopentyl)methyl)-N-(3-sulfamoylphenyl)-4-(trifluoromethyl)-1H-pyrazole-5-carboxamide], for which the IC50 is at most 100 nM.

Turning to `Cc1c(C(C)(F)F)nn(CC2(C)CC(F)(F)C2)c1C(=O)Nc1ccnc(S(N)(=O)=O)c1` [SC-209, 1-((3,3-difluoro-1-methylcyclobutyl)methyl)-3-(1,1-difluoroethyl)-4-methyl-N-(2-sulfamoylpyridin-4-yl)-1H-pyrazole-5-carboxamide], the IC50 is at most 100 nM.

On to `NC(=O)c1ccc(NC(=O)c2c(C(F)(F)F)cnn2CC2CCC(F)(F)CC2)cc1F` [SC-21, N-(4-carbamoyl-3-fluorophenyl)-1-[(4,4-difluorocyclohexyl)methyl]-4-(trifluoromethyl)-1H-pyrazole-5-carboxamide], for which the IC50 fell in the range of 1000 to 10000 nM.

`Cc1c(C(C)(F)F)nn(C[C@H]2C[C@@H]2C(F)(F)F)c1C(=O)Nc1ccnc(C(N)=O)c1` (single isomer, unassigned) [SC-204b]: the IC50 was at most 100 nM.

As for `CS(=O)(=O)c1cc(NC(=O)c2c(C(F)(F)F)c(OC(F)F)nn2CC2CCC(F)(F)C2)ccn1` (racemic) [SC-293, 1-((3,3-difluorocyclopentyl)methyl)-3-(difluoromethoxy)-N-(2-(methylsulfonyl)pyridin-4-yl)-4-(trifluoromethyl)-1H-pyrazole-5-carboxamide], the 50% inhibitory concentration (IC50) is at most 100 nM.
